Test results reported in patent US20160287524A1, “PHARMACEUTICAL COMPOSITIONS COMPRISING AN ACTIVE AGENT” (GALENICUM HEALTH S.L., priority 2013, published 2016).

Assay: Dissolving the active agent in the capsule fill (glycerol monocaprylocaprate, BHT)
Type: physicochemical
Details: 20-23° C., stirred
Description: Another advantage of the process as herein disclosed is that it is highly reproducible and robust independently of the water content of the active agent. […] However, when the active agent has a water content higher than 0.05% measured by Karl Fischer titration, the components of the fill are completely dissolved at the same range of temperatures. Furthermore, the inventors have been able to establish an optimum range of working temperatures able to obtain a fill solution completely dissolved homogeneously with active agents with a water content higher than 0.05% w/w.
• Glycerol monocaprylocaprate was added to a stainless steel tank equipped with cooling jacket to keep it at a temperature of 20-23° C. It was stirred until completely dissolved. • Butylhydroxytoluene (BHT) was added to the tank and stirred until completely dissolved. • Finally dutasteride anhydrous was added to the tank. • The resulting solution was kept at a range of temperature of 20-23° C. […] Water content of the active agent and the range of temperatures were studied to avoid dissolution problems.

Structure (SMILES): C[C@]12C=CC(=O)N[C@@H]1CC[C@@H]1[C@@H]2CC[C@]2(C)[C@@H](C(=O)Nc3cc(C(F)(F)F)ccc3C(F)(F)F)CC[C@@H]12 [dutasteride anhydrous]
- dissolution of active agent in the fill solution: not possible to obtain a completely dissolved solution
